Test results from PMC12516390 (ACS Medicinal Chemistry Letters, 2025).
Read-outs that look alike come from different tables or passages of the source.

Tested on: SARS-CoV-2 (Omicron variant)
Assay: microbe, parasite or virus in culture
Format: cell-based
[1] = Severe acute respiratory syndrome coronavirus 2, read-out: EC50 (μM) SARS-CoV-2/VeroE6-GFP
[2] = Severe acute respiratory syndrome coronavirus 2, read-out: EC50 (μM) SARS-CoV-2 / VeroE6-GFP
[3] = Severe acute respiratory syndrome coronavirus 2, Vero C1008, read-out: EC50 / activity in SARS-CoV-2 VeroE6 antiviral assay

`COc1cccc(-c2ccc(C(=O)N[C@@H](CC(C)C)C(=O)N[C@H](C#N)C[C@@H]3CCNC3=O)cc2)c1` [6e] showed an EC50 [1] of 12.5 ± 0.5 µM.

In the case of `COc1ccc(-c2ccc(C(=O)N[C@@H](CC(C)C)C(=O)N[C@H](C#N)C[C@@H]3CCNC3=O)cc2)cc1OC` [6f], the EC50 [1] is reported as 11.9 ± 0.1 µM.

With `CC(C)C[C@H](NC(=O)c1ccc(-c2cccc3nn(C)cc23)cc1)C(=O)N[C@H](C#N)C[C@@H]1CCNC1=O` [6j] the EC50 [1] was 12.1 ± 0.5 µM.

`CC(C)C[C@H](NC(=O)c1ccc(-c2ccc3c(cnn3C)c2)cc1)C(=O)N[C@H](C#N)C[C@@H]1CCNC1=O` [6l] showed an EC50 [1] of 11.1 ± 0.3 µM.

`CC(C)C[C@H](NC(=O)c1ccc(-c2cccc3nn(C)cc23)cc1F)C(=O)N[C@H](C#N)C[C@@H]1CCNC1=O` [18a] gave an EC50 [2] of 4.18 µM.

With `COc1ccc(-c2ccc(C(=O)N[C@@H](CC(C)C)C(=O)N[C@H](C#N)C[C@@H]3CCNC3=O)c(F)c2)cc1` [18b] the EC50 [2] was 5.67 µM.

For `CC(C)C[C@H](NC(=O)c1ccc(-c2ccc3c(cnn3C)c2)cc1F)C(=O)N[C@H](C#N)C[C@@H]1CCNC1=O` [18c], the EC50 [2] was 6.34 µM.

`COc1ccc(-c2ccc(C(=O)N[C@@H](CC(C)C)C(=O)N[C@H](C#N)C[C@@H]3CCNC3=O)c(C)c2)cc1` [18k] gave an EC50 [2] of 5.16 µM.

Molecule `COc1ccc(-c2ccc(C(=O)N[C@@H](CC(C)C)C(=O)N[C@H](C#N)C[C@@H]3CCNC3=O)c(C(F)(F)F)c2)cc1` [18m] has an EC50 [2] of 2.56 µM.

Molecule `COc1cccc(-c2ccc(C(=O)N[C@@H](CC(C)C)C(=O)N[C@H](C#N)C[C@@H]3CCNC3=O)c(Cl)c2)c1` [18n] has an EC50 [2] of 2.18 µM and an EC50 [1] of 2.18 ± 0.2 µM.

`CC(C)C[C@H](NC(=O)c1ccc(-c2ccc3c(cnn3C)c2)cc1Cl)C(=O)N[C@H](C#N)C[C@@H]1CCNC1=O` [18o] gave an EC50 [2] of 4.25 µM.

Work on `CC(C)C[C@H](NC(=O)c1ccc(-c2cccc3nn(C)cc23)cc1Cl)C(=O)N[C@H](C#N)C[C@@H]1CCNC1=O` [18p] yielded an EC50 [2] of 11.8 µM.

Work on `CC(C)C[C@H](NC(=O)c1ccc(-c2ccc3cnn(C)c3c2)cc1Cl)C(=O)N[C@H](C#N)C[C@@H]1CCNC1=O` [18q] yielded an EC50 [2] of 3.02 µM.

With `COc1ccc(-c2ccc(C(=O)N[C@@H](CC(C)C)C(=O)N[C@H](C#N)C[C@@H]3CCNC3=O)c(Cl)c2)cc1` [18r] the EC50 [2] was 1.57 µM.

In the case of `COc1ccc(-c2ccc(C(=O)N3C[C@H]4[C@@H]([C@H]3C(=O)N[C@H](C#N)C[C@@H]3CCNC3=O)C4(C)C)c(Cl)c2)cc1` [22e], the EC50 [3] is reported as 0.2 to 0.3 µM and the EC50 [1] is reported as 0.289 ± 0.05 µM.

With `COc1cccc(-c2ccc(C(=O)N3C[C@H]4[C@@H]([C@H]3C(=O)N[C@H](C#N)C[C@@H]3CCNC3=O)C4(C)C)c(Cl)c2)c1` [22f] the EC50 [3] was 0.2 to 0.3 µM and the EC50 [1] was 0.331 ± 0.05 µM.

`COc1ccc(-c2ccc(C(=O)N[C@@H](CC3CCCCC3)C(=O)N[C@H](C#N)C[C@@H]3CCNC3=O)c(Cl)c2)cc1` [23c] gave an EC50 [1] of 2.49 ± 0.2 µM.

`COc1cccc(-c2ccc(C(=O)N[C@@H](CC3CCCCC3)C(=O)N[C@H](C#N)C[C@@H]3CCNC3=O)c(Cl)c2)c1` [23d] was tested, and the EC50 [1] was 8.64 ± 0.3 µM.

Molecule `CC(C)(C)[C@H](NC(=O)C(F)(F)F)C(=O)N1C[C@H]2[C@@H]([C@H]1C(=O)N[C@H](C#N)C[C@@H]1CCNC1=O)C2(C)C` [nirmatrelvir, reference compound] has an EC50 [3] of 0.1 to 0.18 µM and an EC50 [1] of 0.101 ± 0.2 µM.
